Reference: patent publication US11110167B2 (priority 2011, dated 2021)

Tested on: human peripheral blood mononuclear cells (PBMC)
Format: cell-based

Row | Substance | IL-1α and IL-1β mean gene expression upregulated | PPARg gene expression
1 | lipopolysaccharide [LPS] | 4.4 fold | consistently downregulated
2 | polyinosinic:polycytidylic acid [Poly(I:C)] | 4.1 fold | consistently downregulated
